# Experimental data reported in the NIST ThermoML archive (doi:10.1016/j.fluid.2005.12.029).
# Numbers after ± are expanded uncertainties.
# Experiment: excess molar enthalpy (molar enthalpy of mixing); xn = mol fraction of the nth substance listed
# Settings: 308.15 K, 12400 kPa, Fluid (supercritical or subcritical phases)
smiles,measurement,setting,value
CCCCCC [hexane] + CO,excess molar enthalpy,x2 = 0.032,0.0609 ± 0.00215 kcal/mol
same,excess molar enthalpy,x2 = 0.062,0.081 ± 0.00239 kcal/mol
same,excess molar enthalpy,x2 = 0.118,0.0966 ± 0.00263 kcal/mol
same,excess molar enthalpy,x2 = 0.145,0.113 ± 0.00311 kcal/mol
same,excess molar enthalpy,x2 = 0.17,0.117 ± 0.00311 kcal/mol
same,excess molar enthalpy,x2 = 0.218,0.125 ± 0.00335 kcal/mol
same,excess molar enthalpy,x2 = 0.249,0.129 ± 0.00335 kcal/mol
same,excess molar enthalpy,x2 = 0.803,0.113 ± 0.00311 kcal/mol
same,excess molar enthalpy,x2 = 0.828,0.107 ± 0.00287 kcal/mol
same,excess molar enthalpy,x2 = 0.851,0.0978 ± 0.00287 kcal/mol
same,excess molar enthalpy,x2 = 0.872,0.0877 ± 0.00263 kcal/mol
same,excess molar enthalpy,x2 = 0.903,0.0727 ± 0.00215 kcal/mol
same,excess molar enthalpy,x2 = 0.928,0.0593 ± 0.00215 kcal/mol
same,excess molar enthalpy,x2 = 0.959,0.0347 ± 0.00191 kcal/mol
CCCCCCCCO [octan-1-ol] + CCCCCC,excess molar enthalpy,x1 = 0.033,0.0741 ± 0.00239 kcal/mol
same,excess molar enthalpy,x1 = 0.05,0.086 ± 0.00239 kcal/mol
same,excess molar enthalpy,x1 = 0.101,0.102 ± 0.00287 kcal/mol
same,excess molar enthalpy,x1 = 0.153,0.111 ± 0.00287 kcal/mol
same,excess molar enthalpy,x1 = 0.206,0.117 ± 0.00311 kcal/mol
same,excess molar enthalpy,x1 = 0.3,0.122 ± 0.00311 kcal/mol
same,excess molar enthalpy,x1 = 0.397,0.12 ± 0.00311 kcal/mol
same,excess molar enthalpy,x1 = 0.447,0.115 ± 0.00311 kcal/mol
same,excess molar enthalpy,x1 = 0.503,0.109 ± 0.00287 kcal/mol
same,excess molar enthalpy,x1 = 0.602,0.0949 ± 0.00263 kcal/mol
same,excess molar enthalpy,x1 = 0.653,0.0822 ± 0.00239 kcal/mol
same,excess molar enthalpy,x1 = 0.696,0.0715 ± 0.00191 kcal/mol
same,excess molar enthalpy,x1 = 0.749,0.059 ± 0.00167 kcal/mol
same,excess molar enthalpy,x1 = 0.789,0.0483 ± 0.00143 kcal/mol
same,excess molar enthalpy,x1 = 0.858,0.0313 ± 0.0012 kcal/mol
same,excess molar enthalpy,x1 = 0.904,0.0163 ± 0.000956 kcal/mol
same,excess molar enthalpy,x1 = 0.928,0.0148 ± 0.00717 kcal/mol
same,excess molar enthalpy,x1 = 0.952,0.00526 ± 0.000956 kcal/mol
